Measured values published in ChEMBL document CHEMBL1201862, “PubChem BioAssay data set” (2004).
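Step 1: Grow cells in 96-well plates. Step 2: Expose to compound for 48 hours at 5 concentrations. Step 3: Interpolate endpoints linearly; if unreached, use highest concentration. GI50 marks 50% less growth.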 Active and inactive are the calls of the source. Rule as the data show it: active = GI50 up to about 1.1 µM and inactive = higher.

What was measured:
Experiment in all cases: NCI anticancer screen, dose series, 48 h
SW-620 = tested on: SW-620
NCI-H522 = tested on: NCI-H522
UACC-257 = tested on: UACC-257
RPMI-8226 = tested on: RPMI-8226
NCI/ADR-RES = tested on: NCI/ADR-RES
CCRF-CEM = tested on: CCRF-CEM
UO-31 = tested on: UO-31
BT-549 = tested on: BT-549
UACC-62 = tested on: UACC-62
SF-268 = tested on: SF-268
MDA-N = tested on: MDA-N
SNB-19 = tested on: SNB-19
HOP-92 = tested on: HOP-92
NCI-H460 = tested on: NCI-H460
ACHN = tested on: ACHN
SN12C = tested on: SN12C
A549 = tested on: A549
HL-60 = tested on: HL-60
NCI-H226 = tested on: NCI-H226
MOLT-4 = tested on: MOLT-4

| SMILES | GI50 (SW-620) | GI50 (NCI-H522) | GI50 (UACC-257) | GI50 (RPMI-8226) | GI50 (NCI/ADR-RES) | GI50 (CCRF-CEM) | GI50 (UO-31) | GI50 (BT-549) | GI50 (UACC-62) | GI50 (SF-268) | GI50 (MDA-N) | GI50 (SNB-19) | GI50 (HOP-92) | GI50 (NCI-H460) | GI50 (ACHN) | GI50 (SN12C) | GI50 (A549) | GI50 (HL-60) | GI50 (NCI-H226) | GI50 (MOLT-4) |
| --- | --- | --- | --- | --- | --- | --- | --- | --- | --- | --- | --- | --- | --- | --- | --- | --- | --- | --- | --- | --- |
| Nc1cc(S(=O)(=O)O)cc2ccc(S(=O)(=O)O)cc12 | > 100 µM (inactive) | > 100 µM (inactive) | > 100 µM (inactive) | > 100 µM (inactive) | > 100 µM (inactive) | > 100 µM (inactive) | > 100 µM (inactive) | > 100 µM (inactive) | > 100 µM (inactive) | > 100 µM (inactive) | > 100 µM (inactive) | > 100 µM (inactive) | > 100 µM (inactive) | > 100 µM (inactive) | > 100 µM (inactive) | > 100 µM (inactive) | > 100 µM (inactive) | > 100 µM (inactive) |  |  |
| NC(=O)c1sc2nc3ccccc3n2c1N | > 100 µM (inactive) |  | > 100 µM (inactive) | > 100 µM (inactive) | > 100 µM (inactive) | > 100 µM (inactive) | > 100 µM (inactive) | 14.4 µM (inactive) | 20 µM (inactive) | 47.2 µM (inactive) | > 100 µM (inactive) | 51.8 µM (inactive) | 69.8 µM (inactive) |  | 59.8 µM (inactive) |  | > 100 µM (inactive) | > 100 µM (inactive) | > 100 µM (inactive) | > 100 µM (inactive) |
| Nc1c(Cl)ncnc1N[C@@H]1C[C@H]1CO | > 100 µM (inactive) | > 100 µM (inactive) | > 100 µM (inactive) |  | > 100 µM (inactive) | > 100 µM (inactive) | > 100 µM (inactive) | > 100 µM (inactive) | > 100 µM (inactive) | > 100 µM (inactive) | > 100 µM (inactive) | > 100 µM (inactive) | > 100 µM (inactive) | > 100 µM (inactive) | > 100 µM (inactive) | > 100 µM (inactive) | > 100 µM (inactive) | > 100 µM (inactive) |  | > 100 µM (inactive) |
| O=C(O)C12C3C4(C(=O)O)C1C1(C(=O)O)C2C3(C(=O)O)C41 (stereo not drawn) | > 100 µM (inactive) | > 100 µM (inactive) | > 100 µM (inactive) | > 100 µM (inactive) | > 100 µM (inactive) | > 100 µM (inactive) | > 100 µM (inactive) | > 100 µM (inactive) | > 100 µM (inactive) | > 100 µM (inactive) | > 100 µM (inactive) | > 100 µM (inactive) | > 100 µM (inactive) | > 100 µM (inactive) | > 100 µM (inactive) | > 100 µM (inactive) | > 100 µM (inactive) | > 100 µM (inactive) |  | > 100 µM (inactive) |
| COc1ccc(OC)c(C2CCc3c(cnc4nc(N)nc(N)c34)C2)c1 (stereo not drawn) | 10.1 µM (inactive) | 6.24 µM (inactive) | 4.28 µM (inactive) |  | 55.3 µM (inactive) |  |  | 14.3 µM (inactive) | 0.673 µM (active) | 4.21 µM (inactive) | 2.07 µM (inactive) | 6.92 µM (inactive) | 13.2 µM (inactive) | 2.07 µM (inactive) | 3.91 µM (inactive) | 8.83 µM (inactive) | 1.24 µM (inactive) | 10.4 µM (inactive) | 24.9 µM (inactive) | 2.49 µM (inactive) |
| Cc1ccc(Nc2n[nH]c(=S)s2)cc1C | > 100 µM (inactive) | 60.3 µM (inactive) | > 100 µM (inactive) | 81.5 µM (inactive) | > 100 µM (inactive) | 72.9 µM (inactive) | > 100 µM (inactive) | > 100 µM (inactive) | > 100 µM (inactive) | > 100 µM (inactive) | 40.6 µM (inactive) | > 100 µM (inactive) | > 100 µM (inactive) | 59 µM (inactive) | > 100 µM (inactive) | > 100 µM (inactive) | 79.4 µM (inactive) | 71.1 µM (inactive) |  | 59.3 µM (inactive) |
